Source: patent US20060287378A1, “Novel pyrroles and imidazoles” (priority 2003, published 2006)
Read-outs that look alike come from different tables or passages of the source.

Legend:
[1] = tested on: Sterol Biosynthesis in L6 Rat Myoblast; test: Sterol biosynthesis in L6 rat myoblast (14C acetic acid into cholesterol); assay type: cell-based; details: 3 hours pre-incubation, 3 hours 14C acetic acid labeling
Procedure: C.) Protocol for Sterol Biosynthesis in L6 Rat Myoblast:
(§1) Cell culture, compounds treatment and cell labeling:
L6 rat myoblast purchased from ATCC (CRL-1458) were grown in T-150 vented culture flasks and seeded on 12-well culture plates at a density of 60,000 cells per well. The cells were grown in DMEM, (Dulbecco's Modified Eagle Medium) (Gibco, #10567-014) containing 10% heat inactivated FBS (Fetal Bovine Serum) (Gibco # 10082-139) for 72 hours until reaching confluence. The cells were pre-incubated in media with compound and 0.2% DMSO (dimethyl sulfoxide) for 3 hours and then labeled by incubating in medium containing compound, 0.2% DMSO and 1 □]Ci/per mL of ^14C acetic acid for an additional 3 hours. After labeling, the cells were washed once with 1×PBS (Gibco #14190-144) then lysed overnight at 4° C. in buffer containing 10% KOH and 78%(vol.) ethanol. Cholesterol extraction and data analysis:
Lipid ester bonds were hydrolyzed by saponification of the lysates at 60° C. for 2 hours. Sterols (including cholesterol) were extracted from saponified lysates by combining with 3 volumes of hexane and mixing by pipette 6 times. The upper organic phase solution was collected and combined with an equal volume of 1 N KOH in 50% methanol and mixed by pipette 6 times. The upper organic phase was collected in a scintilant-coated plate (Wallac #1450-501) and hexanes removed by evaporation at room temperature for 3 hours. The amount of ^14C cholesterol was quantified by scintillation counting in a Trilux 1450 plate reader (Wallac). The IC50 values were calculated from % inhibitions relative to negative controls vs. compound concentration on Microsoft excel 2000 data analysis wizard using a sigmoid inhibition curve model with formula: y=Bmax (1−(x^n/K^n+x^n))+y2
Where K is the IC50 for the inhibition curve, X is inhibitor concentration, Y is the response being inhibited and Bmax+Y2 is the limiting response as X approaches zero.

[2] = molecular target: T1, HMGCoA (3-Hydroxy-3-methylglutaryl CoA) Reductase (Rattus norvegicus, UniProt P51639); test: HMGCoA reductase assay with rat liver microsomes (14C-HMGCoA); assay type: biochemical; details: in vitro assay, 45 min at 37° C.
T1 construct: Male Charles River Sprague-Dawley rats were fed with 2.5% cholestyramine in rat chow diets for 5 days before sacrificing; from tissue; host or cells: liver microsomes of male Sprague-Dawley rats fed cholestyramine
T1 sequence (P51639 1-887): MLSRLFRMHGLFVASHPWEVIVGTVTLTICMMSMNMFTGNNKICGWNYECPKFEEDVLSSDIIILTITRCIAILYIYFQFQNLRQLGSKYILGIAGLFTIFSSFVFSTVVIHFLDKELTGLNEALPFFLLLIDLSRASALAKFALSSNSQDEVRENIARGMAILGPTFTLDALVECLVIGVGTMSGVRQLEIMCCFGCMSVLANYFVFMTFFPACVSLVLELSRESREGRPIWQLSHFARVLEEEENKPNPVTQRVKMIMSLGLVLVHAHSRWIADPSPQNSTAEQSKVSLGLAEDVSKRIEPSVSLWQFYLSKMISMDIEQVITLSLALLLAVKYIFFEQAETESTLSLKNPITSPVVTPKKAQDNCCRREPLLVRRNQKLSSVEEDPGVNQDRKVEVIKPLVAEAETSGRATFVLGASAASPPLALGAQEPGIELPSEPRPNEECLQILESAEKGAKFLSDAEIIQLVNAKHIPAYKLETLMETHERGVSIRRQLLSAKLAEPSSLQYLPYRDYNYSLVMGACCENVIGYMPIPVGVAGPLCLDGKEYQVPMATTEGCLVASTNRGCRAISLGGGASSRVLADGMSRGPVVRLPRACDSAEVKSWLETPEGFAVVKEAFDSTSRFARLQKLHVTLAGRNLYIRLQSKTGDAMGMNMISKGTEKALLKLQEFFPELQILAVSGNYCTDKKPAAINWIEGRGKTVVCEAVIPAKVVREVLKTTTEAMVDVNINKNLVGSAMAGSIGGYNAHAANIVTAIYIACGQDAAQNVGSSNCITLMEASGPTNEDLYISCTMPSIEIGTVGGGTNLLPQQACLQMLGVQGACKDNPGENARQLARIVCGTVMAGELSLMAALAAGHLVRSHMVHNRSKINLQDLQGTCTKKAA
Procedure: Rat Liver Microsomal Isolation Procedure:
Male Charles River Sprague-Dawley rats were fed with 2.5% cholestyramine in rat chow diets for 5 days before sacrificing. Livers were minced and homogenized in a sucrose homogenizing solution in an ice bath 10 times. Homogenates were diluted into a final volume of 200 mL, and centrifuged 15 min. with a Sorvall Centrifuge at 5° C., 10,000 rpm (12,000×G). The upper fat layer was removed and the supernatant decanted into fresh tubes. This step was repeated one more time before transferring the supernatant into ultracentrifuge tubes and centrifuged at 36,000 rpm (105,000×G) for an hour at 5° C. The resulting supernatant was discarded and the pellet was added to total of 15 mL 0.2 M KH2PO4. Pellets were homogenized gently by hand about 10 times. Samples were pooled and diluted into total of 60 mL buffer. The protein concentration of the homogenate was determined by the […] using a BCA (Bicinchoninic acid), kit from Pierce Chemical Company. 1 mL aliquots of microsomes were kept frozen in liquid nitrogen.
HMGCoA (3-Hydroxy-3-methylglutaryl CoA) Reductase Assay:
[3-^14C]-HMGCoA (57.0 mCi/mmol) was purchased from Amersham Biosciences, UK. HMGCoA, mevalonolactone, P-NADPH (P-Nicotinamide Adenine Dinucleotide Phosphate, Reduced form) were purchased from Sigma Chemical Co. AG 1-8×resin was purchased from Bio-Rad Laboratory. • 1. One μL of dimethyl sulfoxide (DMSO) or 1 μL of DMSO containing a test compound at a concentration sufficient to give a final assay concentration of between 0.1 nM to 1 mM was placed into each well of a Corning 96 well plate. A Volume of 34 µL of buffer (100 mM NaH2PO4, 10 mM Imidazole and 10 mM EDTA), (Ethylenediaminetetra acetic acid) containing with 50 µg/mL rat liver microsomes was added into each well. After incubation for 30 min. on ice, 15 µL of ^14C-HMGCoA (0.024 μCi) with 15 mM NADPH, 25 mM DTT, (Dithiothreitol) was added and incubated at 37° C. for an additional 45 min.
The reaction was terminated by the addition of 10 μL of HCl followed by 5 μL of mevalonolactone. Plates were incubated at room temperature overnight to allow lactonization of mevalonate to mevalonolactone. The incubated samples were applied to columns containing 300 μL of AG1-X8 anion exchange resin in a Corning filter plate.
The eluates were collected into Corning 96 well capture plates. Scintillation cocktail (Ultima-Flo-M) was added into each well and plates counted on a Trilux Microbeta Counter. The IC50 values were calculated with GraphPad software (Prism). Procedure: • 2. Add 1 μL DMSO or compounds into the wells according to the protocol • 3. Add 35 μL incubation buffer with the rat microsomes into each well. Incubate 30 min. at 4° C. • 4. Add 15 μL ^14C-HMGCoA. Incubate 45 min. at 37° C. • 5. Add 10 μL HCl stop reagent • 6. Add 5 μL mevelonolactone. Incubate overnight at room temperature • 7. Apply the containing into the AG 1-X8 anion exchange resin in Corning filter plate • 8. Collect the eluate into Corning capture plate • 9. Add scintillation cocktail Ultima-Flo-M • 10. Count on a Trilux Microbeta Counter μ • 11. Calculate IC50 values

[3] = tested on: Sterol Biosynthesis in Rat Hepatocytes; test: Sterol biosynthesis in rat hepatocytes (14C acetic acid into cholesterol); assay type: cell-based; details: Hepatocyte
Procedure: Protocol for Sterol Biosynthesis in Rat Hepatocytes:
as §1
Frozen rat hepatocytes purchased from XenoTech (cat# N400572) were seeded on 6-well collagen I coated plates at a density of 10^5 cells/per well. The cells were grown in DMEM, (Dulbecco's Modified Eagle Medium) (Gibco, #11054-020) containing 10% FBS (Fetal Bovine Serum) and 10 mM HEPES, (N-2-hydroxyethyl-piperazine-N^1-2-ethane sulfonic acid) (Gibco # 15630-080) for 24 hrs. The cells were pre-incubated with compounds for 4 hrs and then labeled by incubating in medium containing 1 uCVper mL of ^14C acetic acid for an additional 4 hrs. After labeling, the cells were washed twice with 5 mM MOPS, (3-[N-morpholino] propane sulfonic acid) solution containing 150 mM NaCl and 1 mM EDTA and collected in the lysis buffer containing 10% KOH and 80% (vol.) ethanol. Cholesterol extraction and data analysis:
In order to separate labeled cholesterol from labeled non-cholesterol lipids, the cells lysates were subject to saponification at 60° C. for 2 hrs. The lysates were then combined with 0.5 volume of H2O and 2 volumes of hexane, followed by 30 minutes of vigorous shaking. After the separation of two phases, the upper-phase solution was collected and combined with 5 volumes of scintillation cocktail. The amount of ^14C cholesterol was quantified by liquid scintillation counting. The IC50 values were calculated with GraphPad software (Prism 3.03).

| melting point | Structure (SMILES) | IC50 [1] [nM] | IC50 [2] [nM] | IC50 ([3]; Rattus norvegicus) [nM] | IC50 ([3]; cell assay, rat hepatocytes, 4 hrs pre-incubation, 4 hrs 14C acetic acid labeling, read-out: IC50) [nM] |
| --- | --- | --- | --- | --- | --- |
| 130 to 134 °C (dec.) | CC(C)c1c(S(=O)(=O)Nc2ccccc2)c(-c2ccc(F)cc2)c(-c2ccc(F)cc2)n1CC[C@@H](O)C[C@@H](O)CC(=O)[O-].[Na+] [Example 1P, (3R,5R)-7-[2,3-bis-(4-fluoro-phenyl)-5-isopropyl-4-phenylsulfamoyl-pyrrol-1-yl]-3,5-dihydroxy-heptanoic acid monosodium salt] |  |  |  |  |
|  | CN(Cc1ccccc1)C(=O)c1nc(-c2ccc(F)cc2)n(CC[C@@H](O)C[C@@H](O)CC(=O)O)c1C1CC1 [Example 112] | 73500 | 8.39 | 1.15 |  |
|  | CC(C)c1c(C(=O)N2CCN(c3ccc(F)cc3F)CC2)nc(-c2ccc(F)cc2)n1CC[C@@H](O)C[C@@H](O)CC(=O)O [Example 69] | 159 | 2.2 | 0.18 |  |
|  | COc1ccc(CNC(=O)c2nc(-c3ccc(F)cc3)n(CC[C@@H]3C[C@@H](O)CC(=O)O3)c2C2CC2)cc1 [Example 104, 5-Cyclopropyl-2-(4-fluoro-phenyl)-1-[2-((2R,4R)-4-hydroxy-6-oxo-tetrahydro-pyran-2-yl)-ethyl]-1H-imidazole-4-carboxylic acid 4-methoxybenzylamide] |  | 75.8 |  |  |
|  | COc1ccc(CNC(=O)c2nc(-c3ccc(F)cc3)n(CC[C@@H](O)C[C@@H](O)CC(=O)O)c2C2CC2)cc1 [Example 111] | 6400 | 1.17 | 0.146 |  |
| 86 to 90 °C | CC(C)c1c(NC(=O)OCc2ccccc2)nc(-c2ccc(F)cc2)n1CC[C@@H](O)C[C@@H](O)CC(=O)[O-].[Na+] [Example 137, Sodium: (3R,5R)-7-[4-benzyloxycarbonylamino-2-(4-fluoro-phenyl)-5-isopropyl-imidazol-1-yl]-3,5-dihydroxy-heptanoate sodium salt] |  |  |  |  |
| > 250 °C | CC(C)c1c(S(=O)(=O)NCc2ccc(C(=O)[O-])cc2)c(-c2ccc(F)cc2)c(-c2ccc(F)cc2)n1CC[C@@H](O)C[C@@H](O)CC(=O)[O-].[Na+].[Na+] [Example 43P] |  |  |  |  |
|  | Cc1cc(CNC(=O)c2nc(-c3ccc(F)cc3)n(CC[C@@H](O)C[C@@H](O)CC(=O)O)c2C(C)C)no1 [Example 62] | 703 | 7.2 | 0.58 |  |
|  | CC(C)c1c(C(=O)NCc2ccccc2)nc(-c2ccc(F)cc2)n1CC[C@@H](O)C[C@@H](O)CC(=O)O [Example 4] | 3070 | 7.9 | 0.42 |  |
|  | O=C(O)C[C@H](O)C[C@H](O)CCn1c(-c2ccc(F)cc2)nc(C(=O)NCc2ccccc2)c1C1CC1 [Example 110, Sodium: (3R,5R)-7-[4-Benzylcarbamoyl-5-cyclopropyl-2-(4-fluoro-phenyl)-imidazol-1-yl]-3,5-dihydroxy-heptanoate] | 632 | 1.38 | 0.218 |  |
|  | O=C1C[C@H](O)C[C@@H](CCn2c(-c3ccc(F)cc3)nc(C(=O)NCc3ccccc3)c2C2CC2)O1 [Example 103, 5-Cyclopropyl-2-(4-fluoro-phenyl)-1-[2-((2R,4R)-4-hydroxy-6-oxo-tetrahydro-pyran-2-yl)-ethyl]-1H-imidazole-4-carboxylic acid benzylamide] |  | 50.4 |  | 0.088 |
